{"source": "patent US10183047B2", "about": "“Chromium-containing compositions in combination with Phyllanthus emblica and shilajit having synergistic effects for improving endothelial function and cardiovascular health” (Natreon, Inc., priority 2014, dated 2019)"}
{"system": "lipid profile", "experiment": "Lipid profile (TC, HDL-C, LDL-C, TG), metabolic syndrome subjects", "format": "in vivo, human", "settings": "MS; 400 mcg", "from_the_text": "(§1) All the subjects had undergone complete physical examination, safety lab evaluations at baseline and at the end of the treatment. Samples were collected after an overnight fast of 12 hrs after the last dose of medication for determination of hemoglobin, glycosylated hemoglobin (HbA1c), blood urea, serum creatinine, liver function, lipid profile (Total cholesterol, High density lipoprotein cholesterol (HDL-C), low density lipoprotein cholesterol (LDL-C) using appropriate standard techniques.\n(§2) Patients included in the study, were of either gender, aged 30-68 years, having endothelial dysfunction defined as ≤6% change in reflection index (RI) on post salbutamol challenge test and central obesity as defined by The International Diabetes Federation guidelines, dated 2006, and any two of the following conditions: […]\n(§3) Subjects were reviewed for follow up at 4 weeks, 8 and 12 weeks of therapy. At each visit they were evaluated for efficacy and safety. Pharmacodynamic evaluation for endothelial function was conducted at baseline and end of treatment. Blood samples were collected for evaluation of biomarkers before and at end of treatment. Safety lab investigations for hematological, hepatic and renal biochemical parameters were conducted before and at the end of the study and also as and when required (in case of any adverse drug reaction (ADR)). Subjects were enquired for the presence of ADR and the same was recorded in the case report form. Compliance to therapy was assessed by pill count method.\n(§4) Assessment of endothelial function, biomarkers, safety parameters and primary and secondary efficacy parameters and data analysis were performed as described under the study with type 2 diabetic subjects in Example 1.\n(§5) When the results with Crominex® 3+ in the above two examples were highly significant, especially with the 400 mcg once daily dose in type 2 diabetics, two more clinical studies (EXAMPLES 3 & 4) were conducted at the same institute, following the same methodology as described earlier, on the individual components of Crominex® 3+, i.e., chromium chloride and Phyllanthus emblica+Shilajit, and other chromium supplements available in the market, i.e., chromium picolinate, chromium polynicotinate and chromium dinicocysteinate, in type 2 diabetics as well as in subjects with metabolic syndrome symptoms.", "units": {"HDL": "%", "LDL": "%", "TC": "%", "TG": "%"}}
{"compound": "O.O.O.O.O.O.[Cl][Cr]([Cl])[Cl]", "note": "[Chromium chloride, Chromium chloride (CrCl3.6H2O)]", "HDL": "−1.08", "LDL": 0.79, "TC": 0.49, "TG": 0.92}
{"compound": "chromium dinicocysteinate", "HDL": "−0.71", "LDL": 2.11, "TC": 1.4, "TG": 1.04}
{"compound": "chromium picolinate", "HDL": 2.1, "LDL": "−2.19", "TC": "−1.18", "TG": "−1.07"}
{"compound": "chromium polynicotinate", "HDL": "−1.55", "LDL": 1.86, "TC": 0.95, "TG": 0.83}
{"system": "lipid profile", "experiment": "Lipid profile (TC, HDL-C, LDL-C, TG), metabolic syndrome subjects", "format": "in vivo, human", "settings": "mean percentage change after 12 weeks of treatment; 400 mcg; Example 4", "from_the_text": "as §1, §2, §3, §4, §5", "units": {"LDL-C, mean percentage change": "%"}}
{"compound": "chromium dinicocysteinate", "LDL-C, mean percentage change": 2.11}
{"compound": "chromium picolinate", "LDL-C, mean percentage change": -2.19}
{"compound": "chromium polynicotinate", "LDL-C, mean percentage change": 1.86}
{"system": "lipid profile", "experiment": "Lipid profile (TC, HDL-C, LDL-C, TG), metabolic syndrome subjects", "format": "in vivo, human", "settings": "metabolic syndrome subjects (Example 4); chromium products 400 mcg; after 12 weeks of treatment", "from_the_text": "as §1, §2, §3, §4, §5", "units": {"Mean percentage change in HDL-C": "%", "Mean percentage change in Total Cholesterol": "%", "Mean percentage change in Triglycerides": "%", "Triglycerides Post Tt": "mg/dL"}}
{"compound": "O.O.O.O.O.O.[Cl][Cr]([Cl])[Cl]", "note": "[Chromium chloride, Chromium chloride (CrCl3.6H2O)]", "HDL-C Post Tt": "36.79 ± 5.14 NS mg/dl", "LDL-C Post Tt": "117.37 ± 9.13 NS mg/dl", "Mean percentage change in HDL-C": "−1.08 ± 3.45", "Mean percentage change in Total Cholesterol": "0.49 ± 1.30", "Mean percentage change in Triglycerides": "0.92 ± 1.43", "Total Cholesterol Post Tt": "189.21 ± 10.80 NS mg/dl", "Triglycerides Post Tt": "175.26 ± 9.70"}
{"compound": "chromium dinicocysteinate", "HDL-C Post Tt": "36.61 ± 5.67 NS mg/dl", "LDL-C Post Tt": "113.64 ± 14.96 mg/dL", "Mean percentage change in HDL-C": "−0.71 ± 3.95", "Mean percentage change in Total Cholesterol": "1.40 ± 1.03", "Mean percentage change in Triglycerides": "1.04 ± 1.06", "Total Cholesterol Post Tt": "184.50 ± 12.49 mg/dL", "Triglycerides Post Tt": "171.22 ± 6.92"}
{"compound": "chromium picolinate", "HDL-C Post Tt": "37.84 ± 4.45@ mg/dl", "LDL-C Post Tt": "111.55 ± 12.58 mg/dL", "Mean percentage change in HDL-C": "2.10 ± 2.84", "Mean percentage change in Total Cholesterol": "−1.18 ± 0.90", "Mean percentage change in Triglycerides": "−1.07 ± 1.20", "Total Cholesterol Post Tt": "182.84 ± 12.60 mg/dL", "Triglycerides Post Tt": "167.26 ± 10.71"}
{"compound": "chromium polynicotinate", "HDL-C Post Tt": "36.20 ± 5.15 NS mg/dl", "LDL-C Post Tt": "111.95 ± 12.95 mg/dL", "Mean percentage change in HDL-C": "−1.55 ± 4.17", "Mean percentage change in Total Cholesterol": "0.95 ± 1.33", "Mean percentage change in Triglycerides": "0.83 ± 1.22", "Total Cholesterol Post Tt": "182.75 ± 14.03 mg/dL", "Triglycerides Post Tt": "173.00 ± 9.33"}
{"system": "lipid profile", "experiment": "Lipid profile (TC, HDL-C, LDL-C, TG), metabolic syndrome subjects", "format": "in vivo, human", "settings": "metabolic syndrome subjects (Example 4); chromium products 400 mcg; pre-treatment", "from_the_text": "as §1, §2, §3, §4, §5", "units": {"HDL-C Pre Tt": "mg/dL", "LDL-C Pre Tt": "mg/dL", "Total Cholesterol Pre Tt": "mg/dL", "Triglycerides Pre Tt": "mg/dL"}}
{"compound": "O.O.O.O.O.O.[Cl][Cr]([Cl])[Cl]", "note": "[Chromium chloride, Chromium chloride (CrCl3.6H2O)]", "HDL-C Pre Tt": "37.21 ± 5.16", "LDL-C Pre Tt": "116.42 ± 9.75", "Total Cholesterol Pre Tt": "188.37 ± 11.78", "Triglycerides Pre Tt": "173.68 ± 9.70"}
{"compound": "chromium dinicocysteinate", "HDL-C Pre Tt": "36.83 ± 5.22", "LDL-C Pre Tt": "111.22 ± 14.34", "Total Cholesterol Pre Tt": "181.94 ± 12.10", "Triglycerides Pre Tt": "169.44 ± 6.24"}
{"compound": "chromium picolinate", "HDL-C Pre Tt": "37.11 ± 4.32", "LDL-C Pre Tt": "114.13 ± 12.80", "Total Cholesterol Pre Tt": "185.05 ± 13.03", "Triglycerides Pre Tt": "169.11 ± 11.02"}
{"compound": "chromium polynicotinate", "HDL-C Pre Tt": "36.85 ± 5.48", "LDL-C Pre Tt": "109.88 ± 12.76", "Total Cholesterol Pre Tt": "181.05 ± 13.98", "Triglycerides Pre Tt": "171.60 ± 9.43"}
{"system": "nitric oxide (NO)", "experiment": "Nitric oxide level, metabolic syndrome subjects", "format": "in vivo, human", "settings": "MS; 400 mcg", "experimental": "(§6) Nitric oxide, MDA, Glutathione and levels were estimated spectrophotometrically as follows. Malondialdehyde (MDA) levels were determined as described in Vidyasagar, et al., “Oxidative stress and antioxidant status in acute organophosphorous insecticide poisoning,” Indian J. Pharmacol. (April 2004) 36(2): 76-79. Glutathione levels were determined as described in G. L. Ellman, Arch. Biochem. Biophys. (1959) 82: 70-77 (original determination). Nitric oxide levels were estimated spectrophotometrically as described in Miranda, et al., “A Rapid, Simple Spectrophotometric Method for Simultaneous Detection of Nitrate and Nitrite,” NITRIC OXIDE: Biology and Chemistry (2001) Vol. 5, No. 1, pp. 62-71. hsCRP (high sensitivity C-reactive protein) was determined by ELISA method.\n(§7) Patients included in the study, were of either gender, aged 30-68 years, having endothelial dysfunction defined as ≤6% change in reflection index (RI) on post salbutamol challenge test and central obesity as defined by The International Diabetes Federation guidelines, dated 2006, and any two of the following conditions:\n(§8) After screening, all the eligible subjects were randomized to receive either one of the three treatments orally for duration of 12 weeks: group 1—one capsule of Crominex®3+ 200 mcg once daily; group 2—one capsule 400 mcg once daily; group 3—one capsule of Placebo once daily.\nas §3, §4, §5", "units": {"NO": "%"}}
{"compound": "O.O.O.O.O.O.[Cl][Cr]([Cl])[Cl]", "note": "[Chromium chloride, Chromium chloride (CrCl3.6H2O)]", "NO": 5.5}
{"compound": "chromium dinicocysteinate", "NO": 7.68}
{"compound": "chromium picolinate", "NO": 13.9}
{"compound": "chromium polynicotinate", "NO": 5.35}
{"system": "nitric oxide (NO)", "experiment": "Nitric oxide level, metabolic syndrome subjects", "format": "in vivo, human", "settings": "metabolic syndrome subjects (Example 4); chromium products 400 mcg; after 12 weeks of treatment", "experimental": "as §6, §7, §8, §3, §4, §5", "units": {"NO Post Tt": "μM/L"}}
{"compound": "O.O.O.O.O.O.[Cl][Cr]([Cl])[Cl]", "note": "[Chromium chloride, Chromium chloride (CrCl3.6H2O)]", "NO Post Tt": "30.99 ± 4.46"}
{"compound": "chromium dinicocysteinate", "NO Post Tt": "32.66 ± 3.88"}
{"compound": "chromium picolinate", "NO Post Tt": "32.94 ± 3.79"}
{"compound": "chromium polynicotinate", "NO Post Tt": "32.93 ± 4.66"}
{"system": "nitric oxide (NO)", "experiment": "Nitric oxide level, metabolic syndrome subjects", "format": "in vivo, human", "settings": "metabolic syndrome subjects (Example 4); chromium products 400 mcg; after 12 weeks treatment", "experimental": "as §6, §7, §8, §3, §4, §5", "units": {"Mean percentage change in NO": "%"}}
{"compound": "O.O.O.O.O.O.[Cl][Cr]([Cl])[Cl]", "note": "[Chromium chloride, Chromium chloride (CrCl3.6H2O)]", "Mean percentage change in NO": "5.50 ± 1.73"}
{"compound": "chromium dinicocysteinate", "Mean percentage change in NO": "7.68 ± 2.25"}
{"compound": "chromium picolinate", "Mean percentage change in NO": "13.92 ± 2.65"}
{"compound": "chromium polynicotinate", "Mean percentage change in NO": "5.35 ± 0.96"}
{"system": "nitric oxide (NO)", "experiment": "Nitric oxide level, metabolic syndrome subjects", "format": "in vivo, human", "settings": "metabolic syndrome subjects (Example 4); chromium products 400 mcg; pre-treatment", "experimental": "as §6, §7, §8, §3, §4, §5", "units": {"NO Pre Tt": "μM/L"}}
{"compound": "O.O.O.O.O.O.[Cl][Cr]([Cl])[Cl]", "note": "[Chromium chloride, Chromium chloride (CrCl3.6H2O)]", "NO Pre Tt": "29.39 ± 4.43"}
{"compound": "chromium dinicocysteinate", "NO Pre Tt": "30.33 ± 3.58"}
{"compound": "chromium picolinate", "NO Pre Tt": "28.94 ± 3.56"}
{"compound": "chromium polynicotinate", "NO Pre Tt": "31.26 ± 4.46"}
{"system": "fasting plasma glucose", "experiment": "Fasting plasma glucose, metabolic syndrome subjects", "format": "in vivo, human", "settings": "MS; 400 mcg", "from_the_text": "as §7, §8, §3, §5", "units": {"Fasting Glucose": "%"}}
{"compound": "O.O.O.O.O.O.[Cl][Cr]([Cl])[Cl]", "note": "[Chromium chloride, Chromium chloride (CrCl3.6H2O)]", "Fasting Glucose": "−2.7"}
{"compound": "chromium dinicocysteinate", "Fasting Glucose": "−2.18"}
{"compound": "chromium picolinate", "Fasting Glucose": "−4.27"}
{"compound": "chromium polynicotinate", "Fasting Glucose": "−4.14"}
{"system": "fasting plasma glucose", "experiment": "Fasting plasma glucose, metabolic syndrome subjects", "format": "in vivo, human", "settings": "metabolic syndrome subjects (Example 4); chromium products 400 mcg; after 12 weeks of treatment", "from_the_text": "as §7, §8, §3, §5"}
{"compound": "O.O.O.O.O.O.[Cl][Cr]([Cl])[Cl]", "note": "[Chromium chloride, Chromium chloride (CrCl3.6H2O)]", "Fasting Plasma Glucose Post Tt": "101.32 ± 16.51 NS"}
{"compound": "chromium dinicocysteinate", "Fasting Plasma Glucose Post Tt": "99.50 ± 17.60 NS"}
{"compound": "chromium picolinate", "Fasting Plasma Glucose Post Tt": "96.63 ± 13.11 @"}
{"compound": "chromium polynicotinate", "Fasting Plasma Glucose Post Tt": "95.95 ± 13.32 NS"}
{"system": "fasting plasma glucose", "experiment": "Fasting plasma glucose, metabolic syndrome subjects", "format": "in vivo, human", "settings": "metabolic syndrome subjects (Example 4); chromium products 400 mcg; pre-treatment", "from_the_text": "as §7, §8, §3, §5"}
{"compound": "O.O.O.O.O.O.[Cl][Cr]([Cl])[Cl]", "note": "[Chromium chloride, Chromium chloride (CrCl3.6H2O)]", "Fasting Plasma Glucose Pre Tt": "104.16 ± 14.92"}
{"compound": "chromium dinicocysteinate", "Fasting Plasma Glucose Pre Tt": "101.72 ± 21.41"}
{"compound": "chromium picolinate", "Fasting Plasma Glucose Pre Tt": "100.95 ± 14.05 ^"}
{"compound": "chromium polynicotinate", "Fasting Plasma Glucose Pre Tt": "100.10 ± 14.00"}
